Key:
[1] = Dissolution of L-glucose monohydrate versus anhydrous L-glucose in water with consumer-like stirring; format: physicochemical; conditions: for Time of stirring until sample fully dissolved: 53 g L-glucose monohydrate in 240 mL doubly distilled water; for Observation of undissolved solid / clumping / Appearance of final solution: 240 mL water
Procedure: The following describes methods for determining the increased dissolution rate of L-glucose monohydrate comprising compositions.
Each sample comprises approximately an equivalent amount of L-glucose on a weight basis. Carefully, to avoid agitation and mixing, doubly distilled water (240 mL) is added to each beaker. In one example, the solution is stirred immediately after addition of water. In a second example, the solutions are allowed to stand for 5 minutes before agitation. The stiffing was conducted in a manner duplicating the way a consumer is expected to stir a sample prior to use. The following Table summaries these experiments which were conducted in duplicate.

[2] = Comparative Example 2: randomized, single-blind study of L-glucose as bowel preparation before colonoscopy (GPA scale); format: in vivo, human
Procedure: (§1) Global Preparation Assessment
(§2) Excellent=clean colon or small volume of clear liquid
(§3) Good=moderate to large volume of clear to semiclear liquid
(§4) Fair=some semisolid stool suctioned or washed away
(§5) Poor=semisolid or solid stool unable to be suctioned or washed away
A randomized, single-blind study designed to determine the clinical effectiveness of L-glucose as a bowel preparation before colonoscopy was performed. Three dose regimens were evaluated: 24 g in the evening only, 30 g in the evening only, and 24 g in the evening followed by 12 g in the morning (36 g total). Here, Applicant's GPA scale described herein was used to evaluate the preparations. […] Clinical efficacy (defined as a combination of “excellent” and “good” assessments) for the split-dose schedule was 19/27 (70%), as compared to 7/31 (23%) in the single-dose schedule (p<0.001).
As noted above in the description of Applicant's GPA scale, the criteria for determining whether a preparation was deemed “excellent” or “good” was respectively defined as “clean colon or small volume of clear liquid” or “moderate to large volume of clear to semi-clear liquid.” These criteria are more stringent than the rating system used by Raymer et al. discussed supra since Raymer's “excellent” and “good” ratings were respectively defined as “no more than small bits of adherent fecal fluid” and “small amounts of feces or fluid not interfering with the examination.” Thus, Raymer's “excellent” rating would likely not qualify as even a “good” rating in Applicant's GPA scale.

[3] = design: species or system mice, rats, dogs, rabbits, and monkeys; conditions: in vivo
Procedure: (§6) In preclinical studies, there was no metabolism of L-glucose in any mammalian species studied. […] The maximum tolerated dose in rats was determined to be 10% dietary level of L-glucose.

[4] = 90-day dietary study of L-glucose; format: in vivo
Procedure: as §6

[5] = Example 3: open-label, 2-site dose-escalating split-dose study of L-glucose before colonoscopy (GPA and RSS); format: in vivo, human
Source text: Applicants have relied upon a combination of a categorical, 4-point scale and a numerical, segmental scoring system to assess bowel cleansing quality (Balaban et al. “Low volume bowel preparation for colonoscopy: randomized, endoscopist-blinded trial of liquid sodium phosphate versus tablet sodium phosphate,” Am J Gastroenterol 98:827-32, 2003). The basic 4-point scale, known as the Global Preparation Assessment (GPA), is essentially the same as the original scale used in the first randomized controlled trial of PHOSPHO-SODA™ as a bowel cleansing agent published in 1990 by Vanner, et al. (“A randomized prospective trial comparing oral sodium phosphate with standard polyethylene glycol-based lavage solution (Golytely) in the preparation of patients for colonoscopy,” Am J Gastroenterol 85:422-7, 1990). The numerical scoring system, known as the Residual Stool Score (RSS), is a continuously variable, averaged segmental scoring instrument that assesses both the amount and consistency of residual stool before suctioning (a measure of the cathartic activity of the bowel cleansing regimen) as well as the percent of the bowel wall seen after washing and cleansing (a measure of the ultimate endpoint for bowel preparation success). The two scales are shown below.
as §1, §2, §3, §4, §5
This open-label, 2-site study employed a dose-escalating design using 3 split doses of L-glucose (24 g/24 g, 36 g/36 g, and 48 g/48 g). The doses were administered the night before and the morning of a scheduled colonoscopy. The study was conducted in Phase I facilities to control for administration of L-glucose and adherence to the dietary and hydration regimen.
Three dose cohorts of 24 subjects were evenly divided between males and females for each cohort. Subjects who were scheduled to undergo an elective colonoscopy, who met the study entrance criteria, and who gave their consent to participate in the study were enrolled. […] Each subject observed a strict diet and hydration regimen as part of the study medication administration.
The site pharmacist prepared the L-glucose preparation based on the study medication preparation manual provided. Each subject, regardless of dose cohort, received the dose in 8 ounces of water, which was to be consumed within a 10-minute period. Dose cohorts proceeded in a dose-escalating fashion starting with the lowest dose (24 g/24 g) and escalated according to a dose escalation decision tree.
The physician performing the colonoscopy utilized Applicant's GPA scale to evaluate the quality of bowel preparation as before suctioning and washing.
The Residual Stool Score (RSS) described above was also used to assess bowel cleansing in each of the 5 segments of the bowel (rectum, descending colon, transverse colon, ascending colon, and cecum). As noted, assessments included the amount of stool present, the consistency of the stool, and the estimated percentage of the bowel wall visualized in each segment.
For reasons of inadequate bowel preparation, sections of the bowel that were not directly examined during colonoscopy were rated as “poor” on all three measures listed previously.
A total of 24 subjects were enrolled into each of the three dose cohorts. All 72 subjects were included in the intent-to-treat (ITT) and safety populations.

[6] = Clinical studies of L-glucose absorption, elimination and tolerability; format: in vivo, human
[7] = Comparative Example 1: multicenter, double-blind, dose-range-finding study of L-glucose as colon-cleansing agent before colonoscopy; format: in vivo, human; conditions: single doses 12 g, 16 g, 20 g, 24 g
Procedure: A multicenter, double-blind, dose-range-finding study to evaluate the effectiveness and safety of L-glucose as a colon-cleansing agent before colonoscopy was conducted. Doses used in this study were 12 g, 16 g, 20 g, and 24 g. The assessment of the preparations was based on the scale used in Hsu et al., “Meta-analysis and cost comparison of polyethylene glycol lavage versus sodium phosphate for colonoscopy preparation,” Gastrointestinal Endoscopy 48(3):276-282, 1998, wherein small bits of fecal material in the colon were allowed in an “Excellent” score.

[8] = 24-g single dose; Raymer scale; cited from earlier work
[9] = 5 min. delay before stirring, listed as L- glucose monohydrate^2, monohydrate
[10] = no delay before stirring, listed as L- glucose monohydrate^2, monohydrate
[11] = 24 g, 30 g, 24 g + 12 g regimens
[12] = Total of all three dose cohorts, ITT, N = 72

O.O=C[C@@H](O)[C@H](O)[C@@H](O)[C@@H](O)CO [L-glucose monohydrate]
Time of stirring until sample fully dissolved ([1]; 5 min. delay before stirring, listed as L- glucose monohydrate^1, monohydrate): Sample fully dissolved after 2.5 min. of stirring. | Time of stirring until sample fully dissolved [1, 9]: Fully dissolved after 1 min. of stirring. Final | Time of stirring until sample fully dissolved ([1]; no delay before stirring, listed as L- glucose monohydrate^1, monohydrate): Sample fully dissolved after 2.5 min. of stirring. | Time of stirring until sample fully dissolved [1, 10]: Fully dissolved after 2 min. of stirring. Final | Observation of undissolved solid / clumping ([1]; 5 min. delay before stirring): Several clusters of solid at 1 min. Final solution | Appearance of final solution [1, 9]: solution was clear, colorless and homogeneous | Observation of undissolved solid / clumping ([1]; no delay before stirring): Several clusters of solid at 1 min. Final solution | Appearance of final solution [1, 10]: solution was clear, colorless and homogeneous

O=C[C@@H](O)[C@H](O)[C@@H](O)[C@@H](O)CO [L-glucose]
Outcome of evening-only dose arms ([2]; 24 g and 30 g evening-only doses): suspended for lack of effectiveness | Changes in laboratory test results [2, 11]: no clinically significant changes | Commonly reported adverse events [2, 11]: generally absent or mild | Overall tolerance to the bowel preparation [2, 11]: good or very good | Clinical efficacy (combination of excellent and good GPA assessments) ([2]; single-dose schedule (24 g or 30 g evening only), 7/31 subjects): 23% | Clinical efficacy (combination of excellent and good GPA assessments) ([2]; split-dose schedule: 24 g evening followed by 12 g morning, 19/27 subjects): 70% | Effect of food restriction on metabolism [3]: no significant effect | Major route of elimination [3]: urinary excretion | Metabolism of L-glucose [3]: no metabolism | Toxicity from continuous administration ([4]; rat, in vivo): no overt evidence of toxicity | Maximum tolerated dose ([4]; rats): 10 % dietary level | Global Preparation Assessment, Max ([5]; 24 g/24 g cohort, ITT, n = 24): 4.00 | Global Preparation Assessment, Mean (SD) ([5]; 24 g/24 g cohort, ITT, n = 24): 3.29 (0.81) | Global Preparation Assessment, Median ([5]; 24 g/24 g cohort, ITT, n = 24): 3.50 | Global Preparation Assessment, Min ([5]; 24 g/24 g cohort, ITT, n = 24): 2.00 | Subjects with GPA Fair, number (percentage) ([5]; 24 g/24 g cohort, ITT, n = 24): 5 (20.8) | Subjects with GPA Good, number (percentage) ([5]; 24 g/24 g cohort, ITT, n = 24): 7 (29.2) | Subjects with GPA Poor, number (percentage) ([5]; 24 g/24 g cohort, ITT, n = 24): 0 (0.0) | Global Preparation Assessment, Max ([5]; 36 g/36 g cohort, ITT, n = 24): 4.00 | Global Preparation Assessment, Median ([5]; 36 g/36 g cohort, ITT, n = 24): 4.00 | Global Preparation Assessment, Min ([5]; 36 g/36 g cohort, ITT, n = 24): 1.00 | Subjects with GPA Fair, number (percentage) ([5]; 36 g/36 g cohort, ITT, n = 24): 2 (8.3) | Subjects with GPA Good, number (percentage) ([5]; 36 g/36 g cohort, ITT, n = 24): 7 (29.2) | Global Preparation Assessment, Max ([5]; 48 g/48 g cohort, ITT, n = 24): 4.00 | Global Preparation Assessment, Median ([5]; 48 g/48 g cohort, ITT, n = 24): 4.00 | Global Preparation Assessment, Min ([5]; 48 g/48 g cohort, ITT, n = 24): 2.00 | Subjects with GPA Fair, number (percentage) ([5]; 48 g/48 g cohort, ITT, n = 24): 1 (4.2) | Subjects with GPA Good, number (percentage) ([5]; 48 g/48 g cohort, ITT, n = 24): 1 (4.2) | Subjects with GPA Poor, number (percentage) ([5]; 48 g/48 g cohort, ITT, n = 24): 0 (0.0) | Efficacy compared among the three split doses ([5]; 48 g/48 g dose): greatest efficacy | Time to the first watery bowel movement, compared among doses ([5]; 48 g/48 g dose): shortest time to the first watery bowel movement | GPA, mean (SD) ([5]; Site 01, all dose cohorts): 3.68 (0.75) | Subjects who had a complete colonoscopy, number (percentage) ([5]; Site 01, all dose cohorts): 30 (96.8%) | Subjects with GPA rated poor, number (percentage) ([5]; Site 01, all dose cohorts): 1 (3.2%) | Subjects with GPA rated excellent ([5]; Site 01, all dose cohorts, 25 subjects): 80.7% | GPA, mean (SD) ([5]; Site 02, all dose cohorts): 3.41 (0.74) | Subjects who had a complete colonoscopy, number (percentage) ([5]; Site 02, all dose cohorts): 39 (95.1%) | Subjects with GPA rated excellent ([5]; Site 02, all dose cohorts, 23 subjects): 56.1% | Global Preparation Assessment, Max [5, 12]: 4.00 | Global Preparation Assessment, Mean (SD) [5, 12]: 3.53 (0.75)^ | Global Preparation Assessment, Median [5, 12]: 4.00 | Global Preparation Assessment, Min [5, 12]: 1.00 | Subjects with GPA Excellent, number (percentage) [5, 12]: 48 (66.7) | Subjects with GPA Fair, number (percentage) [5, 12]: 8 (11.1) | Subjects with GPA Good, number (percentage) [5, 12]: 15 (20.8) | Subjects with GPA Poor, number (percentage) [5, 12]: 1 (1.4) | Subjects who had a complete colonoscopy (to the level of the cecum), number (percentage) ([5]; in each dose cohort (24 g/24 g, 36 g/36 g, 48 g/48 g)): 23 (95.8%) | Metabolism by colonic bacteria ([6]; breath hydrogen in humans, comparable with in vitro studies): colonic bacteria do not metabolize L-glucose | Absorption from the intestine ([6]; human, in vivo): moderately absorbed | Glucose or insulin response after administration ([6]; human, in vivo): No significant glucose or insulin response | Lower gastrointestinal symptoms (cramping, gas/flatus) ([6]; human, in vivo): occurred in a majority of subjects, but symptoms were mild | Major routes of elimination ([6]; human, in vivo): fecal and urinary excretion | Mild upper gastrointestinal symptoms (vomiting, nausea, belching/rifting, bloating) ([6]; human, in vivo): occurred in a minority of subjects | Acceptability as a colonic cleanser [7]: not acceptable | Subjects with colonoscopy preparation grade of excellent or good [8]: 80%

From patent US8470983B2, “L-sugar colon cleansing agent and uses thereof” (Aptalis Pharma Canada Inc., priority 2009, dated 2013)
